Measured values published in PMC6273820, “Antimicrobial Activity and Stability of Short and Long Based Arachnid Synthetic Peptides in the Presence of Commercial Antibiotics” (Molecules, 2016).
Converted amounts (≈) assume the structure as drawn. Like-named read-outs stand apart in the source and are kept apart here. Where no end group is shown, it is not given here.

Experiments:
[1] = system: Escherichia coli ATCC 25922; test: microbe, parasite or virus in culture; format: cell-based; conditions: for MIC: Escherichia coli, read-out: Minimal Inhibitory Concentration, E. coli
Protocol: It was determined using the broth microdilution assay in accordance with the procedures from the Clinical and Laboratory Standards Institute. For broth microdilution assays, pathogenic bacteria, such as Escherichia coli ATCC 25922, Staphylococcus aureus ATCC 25923, Pseudomonas aeruginosa ATCC 27853 and Klebsiella pneumoniae ST258, were cultured in Mueller-Hinton broth (MHB) at 37 °C until an end point between of 0.08 and 0.13 units of absorbance at 625 nm and diluted 1:100 in MHB (ca. […]). Fifty microliters of this bacterial suspension was dispensed into each well of a 96-well microtiter Costar® culture plates (Sigma Aldrich) having 50 µL of MHB containing a proper concentration of pure AMPs, antibiotics or the mixture of either of the AMPs with either of the antibiotics used. Dilutions of peptides and antibiotics were made manually with two-fold dilutions. […]

[2] = system: Klebsiella pneumoniae ST258; test: microbe, parasite or virus in culture; format: cell-based; conditions: for MIC: Klebsiella pneumoniae, ST258, 18 h; for Minimal Inhibitory Concentration, K. pneumoniae: broth microdilution (CLSI), Mueller-Hinton broth, 18 h at 37 °C, A625nm, peptides n = 8
Protocol: (§1) It was determined using the broth microdilution assay in accordance with the procedures from the Clinical and Laboratory Standards Institute. For broth microdilution assays, pathogenic bacteria, such as Escherichia coli ATCC 25922, Staphylococcus aureus ATCC 25923, Pseudomonas aeruginosa ATCC 27853 and Klebsiella pneumoniae ST258, were cultured in Mueller-Hinton broth (MHB) at 37 °C until an end point between of 0.08 and 0.13 units of absorbance at 625 nm and diluted 1:100 in MHB (ca. […]). Fifty microliters of this bacterial suspension was dispensed into each well of a 96-well microtiter Costar® culture plates (Sigma Aldrich) having 50 µL of MHB containing a proper concentration of pure AMPs, antibiotics or the mixture of either of the AMPs with either of the antibiotics used. Dilutions of peptides and antibiotics were made manually with two-fold dilutions.
(§2) That is, the antimicrobial capacity of each AMP (50, 25, 12.5 and 6.2 µg/ mL) in combination with each antibiotic agent (50, 25, 12.5, 3.2, 1.6 and 0 µg/ mL) was measured as described above. For evaluation of the effect of the mixtures, the fractional inhibitory concentration (FIC) was calculated for each antibiotic in each combination. The following formulas were used to calculate the FIC index: FIC of AMP = MIC of AMP in combination with Antibiotic/MIC of AMP alone; FIC of Antibiotic = MIC of Antibiotic in combination with AMP/MIC of Antibiotic alone, and FIC index = FIC of AMP + FIC of Antibiotic. Synergy was defined as an FIC index of <0.5. Additive was defined as an FIC index of >0.5 but of <4, and finally antagonism was defined as an FIC index of >4.

[3] = system: Staphylococcus aureus ATCC 25923; test: microbe, parasite or virus in culture; format: cell-based; conditions: for MIC: Staphylococcus aureus, read-out: Minimal Inhibitory Concentration, S. aureus
Protocol: as §1
as §2, with “E. coli, S. aureus, P. aeruginosa and K. pneumoniae were grown in the presence of each of the four AMPs, and in the presence of each of the eight commercial antibiotics, which were Levofloxacin, Trimethoprim, Sulfamethoxazole, Azithromycin, Amoxicillin, Ceftriaxone, Gentamicin and Vancomycin, and in combinations of AMPs and the antibiotics. That” for “That”

[4] = system: Pseudomonas aeruginosa ATCC 27853; test: microbe, parasite or virus in culture; format: cell-based; conditions: for MIC: Pseudomonas aeruginosa, read-out: Minimal Inhibitory Concentration, P. aureginosa
Protocol: as §1
as §2, with “E. coli, S. aureus, P. aeruginosa and K. pneumoniae were grown in the presence of each of the four AMPs, and in the presence of each of the eight commercial antibiotics, which were Levofloxacin, Trimethoprim, Sulfamethoxazole, Azithromycin, Amoxicillin, Ceftriaxone, Gentamicin and Vancomycin, and in combinations of AMPs and the antibiotics. That” for “That”

[5] = Stability in supernatant of P. aeruginosa growth; format: in vitro ADME, Pseudomonas aeruginosa; conditions: 50 μg/mL, 12 h at 37 °C, extraction, reverse phase HPLC at 230 nm
Protocol: (§3) The four synthetic peptides were subjected to incubation in human blood plasma or in the supernatant of S. aureus and P. aeruginosa growth. The AMPs were diluted in human blood plasma or in the supernatant of bacterial growth (50 μg/mL) and incubated at 37 °C for 12 h. After peptide extraction, the AMPs were separated by reverse phase HPLC using a C18 column (Vydac 218 TP54, Grace Co.) and a linear gradient of acetonitrile in 0.1% aqueous TFA from 0 to 60% in 60 min at a flow rate of 1 mL/min. Effluent absorbance was monitored at 230 nm. Peptide fractions were dried under vacuum, resuspended and analyzed by ESI-MS to confirm their molecular masses.

[6] = Stability in human blood plasma; format: in vitro ADME; conditions: 50 μg/mL; for Peptide found after incubation in human blood plasma: 12 h at 37 °C, extraction, reverse phase HPLC at 230 nm, ESI-MS; for Recovery after interaction with human plasma, first few minutes of dilution: extracted after the first few minutes of dilution, reverse phase HPLC
Protocol: as §3

[7] = cited from earlier work
Excerpt: Concerning AMPs, several physicochemical characteristics have been associated with the biological activity of them. Those that are relevant include hydrophobicity, the helical hydrophobic moment, as well as the size and the net charge of the peptide. However, no particular value relating to any of these characteristics was solely sufficient to correlate with the antimicrobial activity of the AMPs tested. In this case, however, the larger peptides FA1 and Pin2[G] were the AMPs that manifested optimum biological performance. Nevertheless, a fine balance in terms of physicochemical pr ...

[8] = Stability in supernatant of S. aureus growth; format: in vitro ADME, Staphylococcus aureus; conditions: 50 μg/mL, 12 h at 37 °C, extraction, reverse phase HPLC at 230 nm
Protocol: as §3

[9] = read-out: Minimal Inhibitory Concentration, K. pneumoniae
[10] = dose-response in Muller-Hinton broth, Figure 3D
[11] = ATCC25922, broth microdilution (CLSI), Mueller-Hinton broth, 18 h at 37 °C, A625nm, peptides n = 8
[12] = ATCC25923, broth microdilution (CLSI), Mueller-Hinton broth, 18 h at 37 °C, A625nm, peptides n = 8
[13] = ATCC27853, broth microdilution (CLSI), Mueller-Hinton broth, 18 h at 37 °C, A625nm, peptides n = 8
[14] = broth microdilution (CLSI), Mueller-Hinton broth, 18 h at 37 °C, A625nm, peptides n = 8

CC1(C)S[C@@H]2[C@H](NC(=O)[C@H](N)c3ccc(O)cc3)C(=O)N2[C@H]1C(=O)O [Amoxicillin]
MIC ([1]; ATCC25922, 18 h): 12.5 µg/mL (≈ 34.2 µM) | MIC ([2]; read-out: Antibiotic (MIC)): > 50 µg/mL | MIC [2, 9]: > 50 µg/mL | Antibiotic concentration in whose presence K. pneumoniae could grow (up to) [2, 10]: up to 50 µg/mL | MIC ([3]; ATCC25923, 18 h): 1.5 µg/mL | Susceptibility of P. aeruginosa in words [4]: resistant | MIC ([4]; ATCC27853, 18 h): > 50 µg/mL

CC[C@H]1OC(=O)[C@H](C)[C@@H](O[C@H]2C[C@@](C)(OC)[C@@H](O)[C@H](C)O2)[C@H](C)[C@@H](O[C@@H]2O[C@H](C)C[C@H](N(C)C)[C@H]2O)[C@](C)(O)C[C@@H](C)CN(C)[C@H](C)[C@@H](O)[C@]1(C)O [Azithromycin]
MIC [1, 11]: 1.5 µg/mL (≈ 2 µM) | MIC ([2]; read-out: Antibiotic (MIC)): > 50 µg/mL | MIC [2, 9]: > 50 µg/mL | Antibiotic concentration in whose presence K. pneumoniae could grow (up to) [2, 10]: up to 50 µg/mL | MIC [3, 12]: 3.1 µg/mL | MIC [4, 13]: 12.5 µg/mL

CO/N=C(\C(=O)N[C@@H]1C(=O)N2C(C(=O)O)=C(CSc3nc(=O)c(=O)[nH]n3C)CS[C@H]12)c1csc(N)n1 [Ceftriaxone]
MIC [1, 11]: 1.5 µg/mL (≈ 2.7 µM) | MIC ([2]; read-out: Antibiotic (MIC)): > 50 µg/mL | MIC [2, 9]: > 50 µg/mL | Antibiotic concentration in whose presence K. pneumoniae could grow (up to) [2, 10]: up to 50 µg/mL | MIC [3, 12]: 1.5 µg/mL | MIC [4, 13]: 12.5 µg/mL

CNC(C)C1CCC(N)C(OC2C(N)CC(N)C(OC3OCC(C)(O)C(NC)C3O)C2O)O1 (stereo not shown) [Gentamicin]
MIC [1, 11]: 1.5 µg/mL (≈ 3.14 µM) | MIC [2, 9]: 12.5 µg/mL | MIC ([2]; antibiotic alone against K. pneumoniae, based on Figure 3, read-out: Antibiotic (MIC)): 12.5 µg/mL | Susceptibility of K. pneumoniae in words [2, 10]: susceptible | MIC [3, 12]: 1.5 µg/mL | MIC [4, 13]: 1.5 µg/mL

C[C@H]1COc2c(N3CCN(C)CC3)c(F)cc3c(=O)c(C(=O)O)cn1c23 [Levofloxacin]
MIC [1, 11]: 1.5 µg/mL (≈ 4.15 µM) | MIC ([2]; read-out: Antibiotic (MIC)): 50 µg/mL | MIC [2, 9]: 50 µg/mL | Antibiotic concentration in whose presence K. pneumoniae could grow (up to) [2, 10]: up to 25 µg/mL | MIC [3, 12]: 1.5 µg/mL | MIC [4, 13]: 1.5 µg/mL

Cc1cc(NS(=O)(=O)c2ccc(N)cc2)no1 [Sulfamethoxazole]
Susceptibility of E. coli in words [1]: to some extent | MIC ([1]; ATCC25922, 18 h): > 50 µg/mL | MIC ([2]; read-out: Antibiotic (MIC)): > 50 µg/mL | MIC [2, 9]: > 50 µg/mL | Susceptibility of S. aureus in words [3]: resistance | MIC ([3]; ATCC25923, 18 h): > 50 µg/mL | Susceptibility of P. aeruginosa in words [4]: resistant | MIC ([4]; ATCC27853, 18 h): > 50 µg/mL

COc1cc(Cc2cnc(N)nc2N)cc(OC)c1OC [Trimethoprim]
MIC ([1]; ATCC25922, 18 h): 1.5 µg/mL (≈ 5.17 µM) | MIC ([2]; read-out: Antibiotic (MIC)): > 50 µg/mL | MIC [2, 9]: > 50 µg/mL | Antibiotic concentration in whose presence K. pneumoniae could grow (up to) [2, 10]: up to 50 µg/mL | MIC ([3]; ATCC25923, 18 h): 1.5 µg/mL | Susceptibility of P. aeruginosa in words [4]: resistant | MIC ([4]; ATCC27853, 18 h): > 50 µg/mL

CN[C@H](CC(C)C)C(=O)N[C@H]1C(=O)N[C@@H](CC(N)=O)C(=O)N[C@H]2C(=O)N[C@H]3C(=O)N[C@H](C(=O)N[C@H](C(=O)O)c4cc(O)cc(O)c4-c4cc3ccc4O)[C@H](O)c3ccc(c(Cl)c3)Oc3cc2cc(c3O[C@@H]2O[C@H](CO)[C@@H](O)[C@H](O)[C@H]2O[C@H]2C[C@](C)(N)[C@H](O)[C@H](C)O2)Oc2ccc(cc2Cl)[C@H]1O [Vancomycin]
MIC [1, 11]: > 50 µg/mL | Susceptibility of E. coli in words ([1]; dose-response in Muller-Hinton broth, Figure 3C): resistance | MIC ([2]; read-out: Antibiotic (MIC)): > 50 µg/mL | MIC [2, 9]: > 50 µg/mL | Antibiotic concentration in whose presence K. pneumoniae could grow (up to) [2, 10]: up to 50 µg/mL | MIC [3, 12]: 1.5 µg/mL | MIC [4, 13]: > 50 µg/mL | Susceptibility of P. aeruginosa in words ([4]; dose-response in Muller-Hinton broth, Figure 3B): resistant

FWGALAKGALKLIGSLFSSFSKKD [Pin2[G]]
Stability in supernatants of P. aeruginosa [5]: not cleaved | Peptide found after incubation in human blood plasma [6]: One quarter | Minimal Inhibitory Concentration, E. coli [1, 14]: 50 µg/mL | hemolytic activity [7]: 1.4 µM | Peptide (MIC) ([2]; peptide alone against K. pneumoniae, based on Figure 2): >50 µg/mL | Stability in supernatants of S. aureus [8]: not cleaved | Minimal Inhibitory Concentration, S. aureus [3, 14]: 25 µg/mL | Minimal Inhibitory Concentration, P. aureginosa [4, 14]: >50 µg/mL

FWGLKGLKKFSKKL [Pin2[14]]
Peptide found after incubation in human blood plasma [6]: not found | Recovery after interaction with human plasma, first few minutes of dilution [6]: none | Minimal Inhibitory Concentration, E. coli [1, 14]: >50 µg/mL | hemolytic activity [7]: 418 µM | Minimal Inhibitory Concentration, K. pneumoniae [2]: >50 µg/mL | Stability in supernatants of S. aureus [8]: not cleaved | Minimal Inhibitory Concentration, S. aureus [3, 14]: >50 µg/mL | Minimal Inhibitory Concentration, P. aureginosa [4, 14]: >50 µg/mL

GILKTIKSIASKLKRKAK [P18K]
Stability in supernatants of P. aeruginosa [5]: probably sequestered or cleaved | Peptide found after incubation in human blood plasma [6]: neither was P18K obtained | Recovery after interaction with human plasma, first few minutes of dilution [6]: none | Minimal Inhibitory Concentration, E. coli [1, 14]: >50 µg/mL | hemolytic activity [7]: 923 µM | Minimal Inhibitory Concentration, K. pneumoniae [2]: >50 µg/mL | Stability in supernatants of S. aureus [8]: probably sequestered or cleaved | Minimal Inhibitory Concentration, S. aureus [3, 14]: >50 µg/mL | Minimal Inhibitory Concentration, P. aureginosa [4, 14]: >50 µg/mL
